Laboratory results published in US9227971B2, “Pyrazolo[1,5-a]pyrimidine compounds as mTOR inhibitors” (Merck Sharp & Dohme Corp., priority 2010, dated 2016).
pIC50: −log10 of the molar value. Where two headings read alike, the source gives them in different places.

Legend:
[1] = system: phosphorylated AKT Ser473 (pAKT S473), mTORC2 activity, PC3 cells; assay: mTOR target engagement assay, immunofluorescent cell-based, pAKT S473 readout (mTORC2 activity)
In short: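 After blocking, cells were stained overnight at 4 °C with anti-pAKT S473 antibody, then a fluorescent secondary; inhibition was read as reduced fluorescence intensity.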

[2] = system: phosphorylated 4E-BP1 Thr37/46 (p4E-BP1 Thr37/46), mTORC1 activity, PC3 cells; assay: mTOR target engagement assay, immunofluorescent cell-based, p4E-BP1 Thr37/46 readout (mTORC1 activity)
In short: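 Cell-based immunofluorescence in PC3 cells: serially diluted compounds (0.25% DMSO, 5% FBS) applied for ninety minutes at 37° C before fixation and overnight 4° C staining of p4E-BP1 Thr37/46. Untreated DMSO wells set maximal phosphorylation; IC50 obtained by logistic fitting.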

[3] = molecular target: human mTOR enzyme (Homo sapiens, UniProt P42345); assay: mTOR kinase assay (HTRF mTOR enzyme assay); assay type: biochemical; details: 5 μM ATP, 0.2 μM GST-S6K, one hour at 30° C.
Procedure: An HTRF mTOR enzyme assay was developed to assess the compounds' inhibitory activity. The mTOR assay buffer contained 10 mM Hepes (pH 7.4), 50 mM NaCl, 100 μg/ml BSA, 50 mM B-glycerophosphate, 10 mM MnCl2 and 0.5 mM DTT. […] 20 ng of human mTOR enzyme (<5% pure was preincubated with the compound for 10 minutes followed by the addition of 5 μM ATP and 0.2 μM GST-S6K (Zhang et al., Protein Expression and Purification 46, pp 414-420 (2006)). The reaction was incubated for one hour at 30° C. Anti phospho p70-S6K(Thr389) (˜1.7 ng/well, anti-phospho-p70S6K-cryptate (Pho-p70S6-Kin-K cat#64CUSKAY, from Cisbio)) and anti GST-XL665 (1:1 Ratio with the substrate GST-S6K, anti GST-XL665, cat#61 GSTXLB) Cisbio) were added after the reaction was stopped. The plates were read (PHERAstar, BMG) at least 2 hours after adding the anti phospho p70-S6K and the anti GST-XL665.
Dose-response curves were plotted from the inhibition data generated, each in duplicate, from 8 point serial dilutions of inhibitory compounds. Concentration of compound was plotted against the HTRF em665/em590 ratio signal. To generate IC50 values, the dose-response curves were fitted to a standard sigmoidal curve and IC50 values were derived by nonlinear regression analysis.

[4] = Homo sapiens, PC-3, PC3 cells, read-out: p4E-BP1 Thr37/46 IC50
[5] = Table 3-1, PC3 cells, read-out: p4E-BP1 Thr37/46 IC50

Chain of human mTOR enzyme (P42345 1360-2549 limits assumed): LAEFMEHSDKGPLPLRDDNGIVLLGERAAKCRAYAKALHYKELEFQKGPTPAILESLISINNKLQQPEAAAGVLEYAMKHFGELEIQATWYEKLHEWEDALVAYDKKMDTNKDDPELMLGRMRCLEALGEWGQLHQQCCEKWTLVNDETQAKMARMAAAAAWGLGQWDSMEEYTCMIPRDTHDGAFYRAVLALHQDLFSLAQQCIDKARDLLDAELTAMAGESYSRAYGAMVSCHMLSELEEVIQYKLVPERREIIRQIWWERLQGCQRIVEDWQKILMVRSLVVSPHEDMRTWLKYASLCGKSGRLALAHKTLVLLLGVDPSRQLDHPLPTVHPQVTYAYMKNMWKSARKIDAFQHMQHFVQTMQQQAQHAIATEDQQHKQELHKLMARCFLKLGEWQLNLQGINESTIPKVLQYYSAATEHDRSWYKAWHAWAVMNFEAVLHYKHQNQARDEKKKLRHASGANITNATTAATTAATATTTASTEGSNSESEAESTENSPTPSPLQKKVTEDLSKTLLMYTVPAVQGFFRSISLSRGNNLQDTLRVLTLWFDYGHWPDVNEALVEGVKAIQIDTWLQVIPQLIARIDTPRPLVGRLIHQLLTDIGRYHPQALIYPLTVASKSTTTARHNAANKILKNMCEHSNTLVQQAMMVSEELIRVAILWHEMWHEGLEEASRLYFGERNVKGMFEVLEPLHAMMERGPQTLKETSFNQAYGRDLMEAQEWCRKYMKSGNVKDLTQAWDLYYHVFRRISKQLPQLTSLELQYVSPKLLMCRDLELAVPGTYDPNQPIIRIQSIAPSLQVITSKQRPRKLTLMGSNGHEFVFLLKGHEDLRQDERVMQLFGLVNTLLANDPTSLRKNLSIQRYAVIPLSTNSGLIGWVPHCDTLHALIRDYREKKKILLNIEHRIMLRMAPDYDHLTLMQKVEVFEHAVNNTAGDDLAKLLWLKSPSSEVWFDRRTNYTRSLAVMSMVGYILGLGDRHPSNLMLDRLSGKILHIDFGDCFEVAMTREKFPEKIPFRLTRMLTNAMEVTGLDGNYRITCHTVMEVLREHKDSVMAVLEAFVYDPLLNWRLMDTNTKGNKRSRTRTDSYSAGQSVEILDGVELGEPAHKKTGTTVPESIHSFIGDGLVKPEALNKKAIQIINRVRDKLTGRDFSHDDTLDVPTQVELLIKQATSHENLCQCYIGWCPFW

Compound	pIC50 [3]	pIC50 ([1]; Homo sapiens, PC-3, PC3 cells)	pIC50 [2, 4]	further results
CC(=O)c1c([C@@H]2C[C@H]3CC[C@@H](C2)N3C(=O)c2nnc[nH]2)nc2c(-c3ccc(-c4nn(C)cc4F)nc3)cnn2c1N [Compound 1.1.93, 1-(5-((1R,3s,5S)-8-(4H-1,2,4-triazole-3-carbonyl)-8-azabicyclo[3.2.1]octan-3-yl)-7-amino-3-(6-(4-fluoro-1-methyl-1H-pyrazol-3-yl)pyridin-3-yl)pyrazolo[1,5-a]pyrimidin-6-yl)ethanone]	8.64			pIC50 ([1]; Homo sapiens, PC-3, PC3 cells, given as a number, no unit): 5.39; pIC50 ([2]; Homo sapiens, PC-3, PC3 cells, given as a number, no unit, read-out: p4E-1 Thr37/46 IC50): 5.41
N#Cc1ncc(-c2cnn3c(N)cc([C@@H]4C[C@H]5CC[C@@H](C4)N5C(=O)c4nnc[nH]4)nc23)cn1 [Compound 8.95, 5-(5-((1R,3s,5S)-8-(4H-1,2,4-triazole-3-carbonyl)-8-azabicyclo[3.2.1]octan-3-yl)-7-aminopyrazolo[1,5-a]pyrimidin-3-yl)pyrimidine-2-carbonitrile]		< 5.00	< 5.00	
N#Cc1ncc(-c2cnn3c(N)c(C4CC4)c([C@@H]4C[C@H]5CC[C@@H](C4)N5C(=O)c4nnc[nH]4)nc23)cn1 [Compound 8.96, 5-(5-((1R,3s,5S)-8-(4H-1,2,4-triazole-3-carbonyl)-8-azabicyclo[3.2.1]octan-3-yl)-7-amino-6-cyclopropylpyrazolo[1,5-a]pyrimidin-3-yl)pyrimidine-2-carbonitrile]		5.00 to 6.00	5.00 to 6.00	
Nc1c(C2CC2)c(C2CC3CCC(C2)N3C(=O)c2nnc(N3CCNCC3)[nH]2)nc2c(-c3ccc(-c4ccccc4)nc3)cnn12 [Compound 8.98, ((1R,3s,5S)-3-(7-amino-6-cyclopropyl-3-(6-phenylpyridin-3-yl)pyrazolo[1,5-a]pyrimidin-5-yl)-8-azabicyclo[3.2.1]octan-8-yl)(5-(piperazin-1-yl)-4H-1,2,4-triazol-3-yl)methanone]		5.00 to 6.00	5.00 to 6.00	
COCCOc1nnc(C(=O)N2C3CCC2CC(c2nc4c(-c5ccc(-c6ccccc6)nc5)cnn4c(N)c2C2CC2)C3)[nH]1 [Compound 8.100, ((1R,3s,5S)-3-(7-amino-6-cyclopropyl-3-(6-phenylpyridin-3-yl)pyrazolo[1,5-a]pyrimidin-5-yl)-8-azabicyclo[3.2.1]octan-8-yl)(5-(2-methoxyethoxy)-4H-1,2,4-triazol-3-yl)methanone]		6.00 to 7.00	6.00 to 7.00	
CN1CCN(c2nnc(C(=O)N3C4CCC3CC(c3nc5c(-c6ccc(-c7ccccc7)nc6)cnn5c(N)c3C3CC3)C4)[nH]2)CC1 [Compound 8.102, ((1R,3s,5S)-3-(7-amino-6-cyclopropyl-3-(6-phenylpyridin-3-yl)pyrazolo[1,5-a]pyrimidin-5-yl)-8-azabicyclo[3.2.1]octan-8-yl)(5-(4-methylpiperazin-1-yl)-4H-1,2,4-triazol-3-yl)methanone]		5.00 to 6.00	5.00 to 6.00	
COc1nnc(C(=O)N2C3CCC2CC(c2nc4c(-c5ccc(-c6ccccc6)nc5)cnn4c(N)c2C2CC2)C3)[nH]1 [Compound 8.103, ((1R,3s,5S)-3-(7-amino-6-cyclopropyl-3-(6-phenylpyridin-3-yl)pyrazolo[1,5-a]pyrimidin-5-yl)-8-azabicyclo[3.2.1]octan-8-yl)(5-methoxy-4H-1,2,4-triazol-3-yl)methanone]		6.00 to 7.00	6.00 to 7.00	
Nc1nnc(C(=O)N2C3CCC2CC(c2nc4c(-c5ccc(-c6ccccc6)nc5)cnn4c(N)c2C2CC2)C3)[nH]1 [Compound 8.104, (5-amino-4H-1,2,4-triazol-3-yl)((1R,3s,5S)-3-(7-amino-6-cyclopropyl-3-(6-phenylpyridin-3-yl)pyrazolo[1,5-a]pyrimidin-5-yl)-8-azabicyclo[3.2.1]octan-8-yl)methanone]		7.00 to 9.00	7.00 to 9.00	
Nc1c(C2CC2)c(C2CC3CCC(C2)N3C(=O)c2nnc(N3CCOCC3)[nH]2)nc2c(-c3ccc(-c4ccccc4)nc3)cnn12 [Compound 8.105, ((1R,3s,5S)-3-(7-amino-6-cyclopropyl-3-(6-phenylpyridin-3-yl)pyrazolo[1,5-a]pyrimidin-5-yl)-8-azabicyclo[3.2.1]octan-8-yl)(5-morpholino-4H-1,2,4-triazol-3-yl)methanone]		5.00 to 6.00	5.00 to 6.00	
Nc1c(C2CC2)c(C2CC3CCC(C2)N3C(=O)c2nnc(O)[nH]2)nc2c(-c3ccc(-c4ccccc4)nc3)cnn12 [Compound 8.106, ((1R,3s,5S)-3-(7-amino-6-cyclopropyl-3-(6-phenylpyridin-3-yl)pyrazolo[1,5-a]pyrimidin-5-yl)-8-azabicyclo[3.2.1]octan-8-yl)(5-hydroxy-4H-1,2,4-triazol-3-yl)methanone]		7.00 to 9.00	7.00 to 9.00	
CC(=O)c1c(N2CC3CCC2CN3C(=O)[C@@H](C)O)nc2c(-c3ccc(-c4ccccc4)nc3)cnn2c1N (stereo partly drawn) [Compound 47]	7.60 to 8.00			
CC(=O)c1c(N2CC3CCC2CN3C(=O)c2nnc[nH]2)nc2c(-c3ccc(-c4ccccc4)nc3)cnn2c1N (stereo not drawn) [Compound 48]	8.00 to 9.00			
CC(=O)c1c(N2C3CCC2CN(C(=O)CO)C3)nc2c(-c3ccc(-c4ccccc4)nc3)cnn2c1N [Compound 49]	8.00 to 9.00			
CC(=O)c1c(N2C3CCC2CN(C(=O)[C@@H](C)O)C3)nc2c(-c3ccc(-c4ccccc4)nc3)cnn2c1N [Compound 50]	7.60 to 8.00			
Nc1c(F)c([C@@H]2C[C@H]3CC[C@@H](C2)N3C(=O)CO)nc2c(-c3ccc(-c4ncc[nH]4)nc3)cnn12 [Example 8A, 1-[(3-Exo)-3-{7-amino-6-fluoro-3-[6-(1H-imidazol-2-yl)pyridin-3-yl]pyrazolo[1,5-a]pyrimidin-5-yl}-8-azabicyclo[3.2.1]oct-8-yl]-2-hydroxyethanone]	8.70			
Nc1cc([C@@H]2C[C@H]3CC[C@@H](C2)N3)nc2c(-c3cc[nH]c(=O)c3)cnn12 [Example 8B, 4-{7-Amino-5-[(3-exo)-8-azabicyclo[3.2.1]oct-3-yl]pyrazolo[1,5-a]pyrimidin-3-yl}pyridin-2(1H)-one]	6.31			
(1R,3s,5S)-2-methoxyethyl 3-(6-acetyl-7-amino-3-(6-(1-methyl-1H-pyrazol-3-yl)pyridin-3-yl)pyrazolo[1,5-a]pyrimidin-5-yl)-8-azabicyclo[3.2.1]octane-8-carboxylate [Compound 1.1.109]				pIC50 ([1]; PC3 cells, compound treatment ninety minutes at 37° C.): 5.00 to 6.00; pIC50 ([2]; PC3 cells, compound treatment ninety minutes at 37° C., read-out: p4E-BP1 Thr37/46 IC50): 5.00 to 6.00
((1R,3s,5S)-3-(7-amino-3-(6-(1-methyl-(D3)-1H-pyrazol-3-yl)pyridin-3-yl)-6-(methylsulfonyl)pyrazolo[1,5-a]pyrimidin-5-yl)-8-azabicyclo[3.2.1]octan-8-yl)(4H-1,2,4-triazol-3-yl)methanone [Compound 3.70]				pIC50 ([1]; Table 3-1, PC3 cells): 6.00 to 7.00; pIC50 [2, 5]: 6.00 to 7.00
((1R,3s,5S)-3-(7-amino-6-(methylsulfonyl)-3-(6-(5-methylthiazol-2-yl)pyridin-3-yl)pyrazolo[1,5-a]pyrimidin-5-yl)-8-azabicyclo[3.2.1]octan-8-yl)(5-methyl-4H-1,2,4-triazol-3-yl)methanone [Compound 3.183]				pIC50 ([1]; Table 3-1, PC3 cells): 6.00 to 7.00; pIC50 [2, 5]: 6.00 to 7.00
